Where “and” joins values, the source holds several entries; their conditions need not be identical. Equal entries are not always repeated. Inconclusive results and toxic doses are left out.
Tested on: L1210 leukemia ip in BDF1 mice, survival T/C
Assay: NCI In Vivo Anticancer Drug Screen. Data for tumor model L1210 Leukemia (intraperitoneal) in B6D2F1 (BDF1) mice
Conditions: endpoint: mean survival time, higher = longer survival
Outline: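 Transplanted-tumor mice were given test agent; controls received vehicle only. Survival readings from the two groups were divided (treated over control).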

[1] = dose: 100.0 mg/kg/injection, schedule: Q01DX009 (ip), vehicle: Klucel (hydroxypropylcellulose) (HPC)
[2] = dose: 100.0 mg/kg/injection, schedule: Q01DX009 (ip), vehicle: saline with Tween-80
[3] = dose: 100.0 mg/kg/injection, schedule: Q04DX003 (ip), vehicle: Klucel (hydroxypropylcellulose) (HPC)
[4] = dose: 100.0 mg/kg/injection, schedule: Q04DX003 (ip), vehicle: saline with Tween-80
[5] = dose: 200.0 mg/kg/injection, schedule: Q01DX009 (ip), vehicle: Klucel (hydroxypropylcellulose) (HPC)
[6] = dose: 200.0 mg/kg/injection, schedule: Q01DX009 (ip), vehicle: saline with Tween-80
[7] = dose: 200.0 mg/kg/injection, schedule: Q04DX003 (ip), vehicle: Klucel (hydroxypropylcellulose) (HPC)
[8] = dose: 200.0 mg/kg/injection, schedule: Q04DX003 (ip), vehicle: saline with Tween-80
[9] = dose: 400.0 mg/kg/injection, schedule: Q01DX009 (ip), vehicle: Klucel (hydroxypropylcellulose) (HPC)
[10] = dose: 400.0 mg/kg/injection, schedule: Q04DX003 (ip), vehicle: Klucel (hydroxypropylcellulose) (HPC)
[11] = dose: 100.0 mg/kg/injection, schedule: Q01DX009 (ip), vehicle: saline
[12] = dose: 200.0 mg/kg/injection, schedule: Q01DX009 (ip), vehicle: saline

Question: What does the source list for O=C(Nc1ccc([N+](=O)[O-])cc1)Nc1ccc([N+](=O)[O-])cc1?
Answer: T/C [1]: 93 % of control; T/C (dose: 100.0 mg/kg/injection, schedule: Q01DX009 (ip), vehicle: saline sonified): 109 % of control; T/C [2]: 109 % of control; T/C (dose: 100.0 mg/kg/injection, schedule: Q04DX002 (ip), vehicle: Klucel (hydroxypropylcellulose) (HPC)): 101 % of control; T/C [3]: 104 % of control; T/C (dose: 100.0 mg/kg/injection, schedule: Q04DX003 (ip), vehicle: saline sonified): 96 % of control; T/C [4]: 100 % of control; T/C [5]: 94 % of control; T/C (dose: 200.0 mg/kg/injection, schedule: Q01DX009 (ip), vehicle: saline sonified): 110 % of control; T/C [6]: 90 % of control; T/C (dose: 200.0 mg/kg/injection, schedule: Q04DX002 (ip), vehicle: Klucel (hydroxypropylcellulose) (HPC)): 90 % of control; T/C [7]: 104 % of control; T/C (dose: 200.0 mg/kg/injection, schedule: Q04DX003 (ip), vehicle: saline sonified): 91 % of control; T/C [8]: 102 % of control; T/C [9]: 88 % of control; T/C (dose: 400.0 mg/kg/injection, schedule: Q01DX009 (ip), vehicle: saline sonified): 98 % of control; T/C (dose: 400.0 mg/kg/injection, schedule: Q01DX009 (ip), vehicle: saline with Tween-80): 86 % of control; T/C (dose: 400.0 mg/kg/injection, schedule: Q04DX002 (ip), vehicle: Klucel (hydroxypropylcellulose) (HPC)): 97 % of control; T/C [10]: 98 % of control; T/C (dose: 400.0 mg/kg/injection, schedule: Q04DX003 (ip), vehicle: saline sonified): 93 % of control; T/C (dose: 400.0 mg/kg/injection, schedule: Q04DX003 (ip), vehicle: saline with Tween-80): 97 % of control

Question: With O=C(O)CCNCCO as the compound, how does the T/C [11] read?
Answer: 98 % of control

Question: And the T/C [12]?
Answer: 98 % of control

Question: What does the source list for Cc1ccc(-c2cc3ccccc3[nH]2)cc1?
Answer: T/C (dose: 50.0 mg/kg/injection, schedule: Q01DX009 (ip), vehicle: Klucel (hydroxypropylcellulose) (HPC)): 94 % of control; T/C [1]: 89 % of control; T/C [3]: 91 % of control; T/C [5]: 86 % of control; T/C [7]: 90 % of control

Question: What does the source list for Ic1ccc(Oc2ccc(I)cc2)cc1?
Answer: T/C [3]: 113 % of control; T/C [7]: 90 % of control; T/C (dose: 222.0 mg/kg/injection, schedule: Q01DX Z (ip), vehicle: methylcellulose (MC)): 92 % of control; T/C (dose: 333.0 mg/kg/injection, schedule: Q01DX Z (ip), vehicle: methylcellulose (MC)): 92 % of control; T/C [10]: 98 % of control; T/C (dose: 500.0 mg/kg/injection, schedule: Q01DX Z (ip), vehicle: methylcellulose (MC)): 100 % of control

Question: How did the T/C (dose: 12.5 mg/kg/injection, schedule: Q01DX Z (ip), vehicle: saline) turn out when CCc1c(CC(=O)O)c2cc(C)ccc2n1Cc1ccc(Cl)cc1 was run?
Answer: 95 % of control and 96 % of control

Question: What about the T/C (dose: 24.0 mg/kg/injection, schedule: Q01DX Z (ip), vehicle: carboxymethylcellulose (CMC)) of the same compound?
Answer: 91 % of control

Question: And the T/C (dose: 25.0 mg/kg/injection, schedule: Q01DX Z (ip), vehicle: saline)?
Answer: 103 % of control and 100 % of control

Question: What about the T/C (dose: 36.0 mg/kg/injection, schedule: Q01DX Z (ip), vehicle: carboxymethylcellulose (CMC)) of the same compound?
Answer: 92 % of control

Question: And the T/C (dose: 50.0 mg/kg/injection, schedule: Q01DX Z (ip), vehicle: saline)?
Answer: 113 % of control and 102 % of control

Question: What about the T/C (dose: 54.0 mg/kg/injection, schedule: Q01DX Z (ip), vehicle: carboxymethylcellulose (CMC)) of the same compound?
Answer: 95 % of control

Question: What about the T/C (dose: 100.0 mg/kg/injection, schedule: Q01DX Z (ip), vehicle: saline) of the same compound?
Answer: 95 % of control and 93 % of control

Question: What about the T/C (dose: 162.0 mg/kg/injection, schedule: Q01DX Z (ip), vehicle: carboxymethylcellulose (CMC)) of the same compound?
Answer: 94 % of control

Question: What about the T/C (dose: 324.0 mg/kg/injection, schedule: Q01DX Z (ip), vehicle: carboxymethylcellulose (CMC)) of the same compound?
Answer: 88 % of control

Question: For COc1ccc(C2C(c3ccccc3)C=CC(c3ccccc3)C2[N+](=O)[O-])cc1OC (centres undefined), which T/C (dose: 100.0 mg/kg/injection, schedule: Q01DX001 (ip), vehicle: carboxymethylcellulose (CMC)) is on record?
Answer: 94 % of control

Question: And the T/C (dose: 200.0 mg/kg/injection, schedule: Q01DX001 (ip), vehicle: carboxymethylcellulose (CMC))?
Answer: 110 % of control

Question: What about the T/C (dose: 400.0 mg/kg/injection, schedule: Q01DX001 (ip), vehicle: carboxymethylcellulose (CMC)) of the same compound?
Answer: 94 % of control

Question: Which T/C (dose: 50.0 mg/kg/injection, schedule: Q01DX001 (ip), vehicle: saline) does the source give for CC(=O)NCCCCC(N)C(=O)O (centres undefined) here?
Answer: 104 % of control

Question: What about the T/C (dose: 100.0 mg/kg/injection, schedule: Q01DX001 (ip), vehicle: saline) of the same compound?
Answer: 93 % of control

Question: What about the T/C (dose: 200.0 mg/kg/injection, schedule: Q01DX001 (ip), vehicle: saline) of the same compound?
Answer: 93 % of control

Question: And the T/C (dose: 400.0 mg/kg/injection, schedule: Q01DX001 (ip), vehicle: saline)?
Answer: 95 % of control

Question: Which T/C (dose: 25.0 mg/kg/injection, schedule: Q04DX002 (ip), vehicle: saline) does the source give for O=C(CCl)NP(=O)(O)O here?
Answer: 97 % of control

Question: And the T/C (dose: 50.0 mg/kg/injection, schedule: Q04DX002 (ip), vehicle: saline)?
Answer: 102 % of control

Question: What about the T/C (dose: 100.0 mg/kg/injection, schedule: Q04DX002 (ip), vehicle: saline) of the same compound?
Answer: 102 % of control

Question: What does the source list for O=c1nc(-c2ccccc2)c(-c2ccccc2)n[nH]1?
Answer: T/C (dose: 50.0 mg/kg/injection, schedule: Q01DX009 (ip), vehicle: saline with Tween-80): 91 % of control; T/C [2]: 98 % of control; T/C [3]: 107 % of control; T/C [6]: 98 % of control; T/C [7]: 100 % of control; T/C [10]: 102 % of control

Question: What does the source list for NC(CSC(c1ccccc1)(c1ccccc1)c1ccc(C(=O)O)cc1)C(=O)O.[Ga] (centres undefined)?
Answer: T/C (dose: 100.0 mg/kg/injection, schedule: Q01DX001 (ip), vehicle: acetone): 96 % of control; T/C [11]: 103 % of control; T/C (dose: 100.0 mg/kg/injection, schedule: Q04DX003 (ip), vehicle: saline): 106 % of control; T/C (dose: 200.0 mg/kg/injection, schedule: Q01DX001 (ip), vehicle: acetone): 98 % of control; T/C [12]: 90 % of control; T/C (dose: 200.0 mg/kg/injection, schedule: Q04DX003 (ip), vehicle: saline): 97 % of control; T/C (dose: 400.0 mg/kg/injection, schedule: Q01DX001 (ip), vehicle: acetone): 112 % of control; T/C (dose: 400.0 mg/kg/injection, schedule: Q01DX009 (ip), vehicle: saline): 98 % of control; T/C (dose: 400.0 mg/kg/injection, schedule: Q04DX003 (ip), vehicle: saline): 100 % of control

Question: Which T/C [3] does the source give for O=C(CCc1ccc(N(CCCl)CCCl)cc1)NC1CCCC1 here?
Answer: 116 % of control

Question: And the T/C [7]?
Answer: 115 % of control

Question: And the T/C [10]?
Answer: 115 % of control

Question: Which results are given for Cc1ccc(S(=O)NOCc2ccccc2)cc1 (centres undefined)?
Answer: T/C [3]: 95 % of control; T/C [7]: 105 % of control; T/C [10]: 100 % of control

Question: How did the T/C [3] turn out when Nc1ccccc1SC1CC(=O)N(c2cccc3ccccc23)C1=O (centres undefined) was run?
Answer: 89 % of control

Question: And the T/C [10]?
Answer: 90 % of control

Question: O=C1/C(=C\c2ccccc2)SC(=Nc2ccccc2)N1c1ccccc1 was tested. Which T/C [1] did it give?
Answer: 101 % of control

Question: What about the T/C [3] of the same compound?
Answer: 104 % of control

Question: And the T/C [5]?
Answer: 98 % of control

Question: What about the T/C [7] of the same compound?
Answer: 96 % of control

Question: What about the T/C [9] of the same compound?
Answer: 93 % of control

Question: And the T/C [10]?
Answer: 94 % of control

Question: What does the source list for CCCCCCCCCCCCCCCC(O)S(=O)(=O)O (centres undefined)?
Answer: T/C [4]: 92 % of control; T/C [8]: 97 % of control

Question: Cn1[nH]c(=O)c2ccccc2c1=O was tested. Which T/C (dose: 8.2 mg/kg/injection, schedule: Q04DX003 (ip), vehicle: Klucel (hydroxypropylcellulose) (HPC)) did it give?
Answer: 104 % of control

Question: What about the T/C (dose: 12.5 mg/kg/injection, schedule: Q04DX003 (ip), vehicle: Klucel (hydroxypropylcellulose) (HPC)) of the same compound?
Answer: 109 % of control and 120 % of control

Question: What about the T/C (dose: 18.0 mg/kg/injection, schedule: Q04DX003 (ip), vehicle: Klucel (hydroxypropylcellulose) (HPC)) of the same compound?
Answer: 108 % of control

Question: What about the T/C (dose: 25.0 mg/kg/injection, schedule: Q04DX003 (ip), vehicle: Klucel (hydroxypropylcellulose) (HPC)) of the same compound?
Answer: 97 % of control

Question: What about the T/C (dose: 50.0 mg/kg/injection, schedule: Q04DX003 (ip), vehicle: Klucel (hydroxypropylcellulose) (HPC)) of the same compound?
Answer: 110 % of control

Question: And the T/C [3]?
Answer: 106 % of control

Question: And the T/C [7]?
Answer: 106 % of control

Question: And the T/C [10]?
Answer: 103 % of control

Question: How did the T/C (dose: 2.5 mg/kg/injection, schedule: Q01DX Z (ip), vehicle: carboxymethylcellulose (CMC)) turn out when CCCCCCCCCCOP(=S)(N1CC1)N1CC1 was run?
Answer: 107 % of control

Question: What about the T/C (dose: 5.0 mg/kg/injection, schedule: Q01DX Z (ip), vehicle: carboxymethylcellulose (CMC)) of the same compound?
Answer: 118 % of control

Question: What about the T/C (dose: 20.0 mg/kg/injection, schedule: Q01DX Z (ip), vehicle: carboxymethylcellulose (CMC)) of the same compound?
Answer: 232 % of control and 260 % of control

Question: What about the T/C (dose: 40.0 mg/kg/injection, schedule: Q01DX Z (ip), vehicle: carboxymethylcellulose (CMC)) of the same compound?
Answer: 150 % of control

Question: How did the T/C (dose: 100.0 mg/kg/injection, schedule: Q04DX002 (ip), vehicle: saline with Tween-80) turn out when C=CCCCCCCCCC was run?
Answer: 93 % of control

Question: What about the T/C (dose: 200.0 mg/kg/injection, schedule: Q04DX002 (ip), vehicle: saline with Tween-80) of the same compound?
Answer: 111 % of control

Question: And the T/C (dose: 400.0 mg/kg/injection, schedule: Q04DX002 (ip), vehicle: saline with Tween-80)?
Answer: 104 % of control
